# Measurements reported in PMC8222254, “Self-assembly of an anion receptor with metal-dependent kinase inhibition and potent in vitro anti-cancer properties” (Nature Communications, 2021).
# Values joined by “and” are separate entries in the source; they are usually repeats but may differ in a detail not shown here. Identical values can stand only once. Like-named read-outs stand apart in the source and are kept apart here.
# Columns and labels:
# Format in all cases: cell-based, human
# [1] = tested on: HCT116 p53-/-; assay: Confocal imaging of autophagic cells (CYTO-ID); details: 3.125 µM, 40 h
# Method: Cells were seeded in Lumox chamber slides (8-well, Sarstedt) at a density of 1.25 × 10^4 cells/well (ARPE-19) or 5.625 × 10^4 cells/well (HCT116 p53^−/− and HCT116 p53^+/+). 24 h after seeding, cells were treated with 3.125 μM of [L2Cu3]^6+, [L2Zn3]^6+, [L2Mn3]^6+, or vehicle control for 40 h before removal and addition of CYTO-ID Green autophagic dye (1:500 dilution, Enzo Life Sciences) and Hoechst 3342 nuclear counter stain for 30 min at 37 °C. Media was then replaced before imaging using a Zeiss LSM880 confocal laser scanning microscope.
# [2] = tested on: HCT116 p53-/-; assay: Chemosensitivity, 96 h continuous exposure, MTT assay; details: for IC50 / Selectivity indices relative to ARPE-19, Ratio + anion:no anion / Selectivity indices relative to MCF10A, Ratio + anion:no anion: HCT116 p53-/-; for Selectivity index (ARPE19): IC50 ARPE-19 / IC50 HCT116 p53-/-; for SI (ARPE19): mean IC50 ARPE-19 / mean IC50 HCT116 p53-/-; for Selectivity index (MCF10A): IC50 MCF10A / IC50 HCT116 p53-/-; for Selectivity Index using the NPI non-cancer cell line: IC50 NP1 / IC50 HCT116 p53-/-; for SI (MCF10A): mean IC50 MCF10A / mean IC50 HCT116 p53-/-; for SI (NPI): mean IC50 NP1 / mean IC50 HCT116 p53-/-; for Relative potency (+ anion to no anion), Ratio + anion:no anion: ratio of IC50, HCT116 p53-/-; for Selectivity indices relative to ARPE-19, Ratio + anion:no anion: ratio of SI (ARPE-19); for Selectivity indices relative to MCF10A, Ratio + anion:no anion: ratio of SI (MCF 10A)
# In short: (§1)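 Cells seeded at 2 × 10^3/well (GBM1 3 × 10^3/well) and left overnight at 37 °C, then exposed continuously for 96 h to a range of compound concentrations (final DMSO 0.2%). Viability read by MTT, absorbance at 540 nm; IC50 taken from dose-response curves as concentration reducing cell growth by 50%.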
# [3] = tested on: H460; assay: as above; details: for Selectivity index (ARPE19): IC50 ARPE-19 / IC50 H460; for Selectivity index (MCF10A): IC50 MCF10A / IC50 H460; for Selectivity Index using the NPI non-cancer cell line: IC50 NP1 / IC50 H460; for SI (ARPE19): mean IC50 ARPE-19 / mean IC50 H460; for SI (MCF10A): mean IC50 MCF10A / mean IC50 H460; for SI (NPI): mean IC50 NP1 / mean IC50 H460; for Relative potency (+ anion to no anion), Ratio + anion:no anion: ratio of IC50, H460; for Selectivity indices relative to ARPE-19, Ratio + anion:no anion: ratio of SI (ARPE-19); for Selectivity indices relative to MCF10A, Ratio + anion:no anion: ratio of SI (MCF 10A);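 on SI (NPI): adult human brain neural progenitor non-cancer cells from an epilepsy surgery patient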;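 on Selectivity Index using the NPI non-cancer cell line: adult human brain neural progenitor non-cancer cells from an epilepsy surgery patient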
# In short: as §1
# [4] = tested on: MCF10A non-cancer cells; assay: as above; details: for Relative potency (+ anion to no anion), Ratio + anion:no anion: ratio of IC50, MCF10A
# In short: as §1
# [5] = tested on: HT-29; assay: as above; details: for Selectivity index (ARPE19): IC50 ARPE-19 / IC50 HT29; for Selectivity index (MCF10A): IC50 MCF10A / IC50 HT29; for Selectivity Index using the NPI non-cancer cell line: IC50 NP1 / IC50 HT29; for SI (ARPE19): mean IC50 ARPE-19 / mean IC50 HT-29; for SI (MCF10A): mean IC50 MCF10A / mean IC50 HT-29; for SI (NPI): mean IC50 NP1 / mean IC50 HT-29; for Relative potency (+ anion to no anion), Ratio + anion:no anion: ratio of IC50, HT29; for Selectivity indices relative to ARPE-19, Ratio + anion:no anion: ratio of SI (ARPE-19); for Selectivity indices relative to MCF10A, Ratio + anion:no anion: ratio of SI (MCF 10A);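 on SI (NPI): adult human brain neural progenitor non-cancer cells from an epilepsy surgery patient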;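 on Selectivity Index using the NPI non-cancer cell line: adult human brain neural progenitor non-cancer cells from an epilepsy surgery patient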
# In short: as §1
# [6] = 96 h, MTT, individual run, read-out: IC50 values for each replicate
# [7] = 96 h, MTT, mean of at least 3 independent experiments, read-out: Mean IC50
# [8] = H460, 96 h, MTT, individual run, read-out: IC50 values for each replicate
# [9] = H460, 96 h, MTT, mean of at least 3 independent experiments, read-out: Mean IC50
# [10] = H460, mean of replicates, read-out: Mean IC50
# [11] = H460, read-out: Mean IC50 values
# [12] = MCF10A non-cancer, read-out: Mean IC50 values
# [13] = MCF10A, 96 h, MTT, individual run, read-out: IC50 values for each replicate
# [14] = MCF10A, 96 h, MTT, mean of at least 3 independent experiments, read-out: Mean IC50
# [15] = MCF10A, mean of replicates, read-out: Mean IC50
# [16] = HT29, mean of replicates, read-out: Mean IC50
# [17] = HT29, read-out: Mean IC50 values
# [18] = HT-29, 96 h, MTT, individual run, read-out: IC50 values for each replicate
# [19] = HT-29, 96 h, MTT, mean of at least 3 independent experiments, read-out: Mean IC50
# [20] = mean of replicates, read-out: Mean IC50
compound,measurement,setting,value
[Mn+2].[Mn+2].[Mn+2].c1ccc(-c2csc(NCCN(CCNc3nc(-c4ccccn4)cs3)CCNc3nc(-c4ccccn4)cs3)n2)nc1.c1ccc(-c2csc(NCCN(CCNc3nc(-c4ccccn4)cs3)CCNc3nc(-c4ccccn4)cs3)n2)nc1 [[L2Mn3]6+],induction of vacuoles / autophagy (CYTO-ID),[1],most pronounced
same,induction of vacuoles / autophagy (CYTO-ID),[1]; listed as Mn^2+ complex,also induced autophagy
same,IC50,[2]; [6],1.56 µM and 0.785 µM and 1.35 µM and 1.28 µM
same,IC50,[2]; [7],1.25 µM
same,IC50,[2]; read-out: Mean IC50 values,1.25 µM
same,Selectivity index (ARPE19),[2],2.30
same,SI (ARPE19),[2],2.295
CC(=O)[O-].CC(=O)[O-].CC(=O)[O-].CC(=O)[O-].CC(=O)[O-].CC(=O)[O-].[Zn+2].[Zn+2].[Zn+2].c1ccc(-c2csc(NCCN(CCNc3nc(-c4ccccn4)cs3)CCNc3nc(-c4ccccn4)cs3)n2)nc1.c1ccc(-c2csc(NCCN(CCNc3nc(-c4ccccn4)cs3)CCNc3nc(-c4ccccn4)cs3)n2)nc1 [[L2Zn3]6+],induction of vacuoles / autophagy (CYTO-ID),[1],induced the appearance of vacuoles
same,IC50,[3]; [8],0.186 µM and 0.273 µM and 0.557 µM and 0.236 µM and 0.441 µM and 0.594 µM and 0.235 µM
same,IC50,[3]; [9],0.36 µM
same,IC50,[3]; [10],0.36 µM
same,IC50,[3]; [11],0.36 µM
same,Selectivity index (ARPE19),[3],436.81
same,Selectivity index (MCF10A),[3],449.00
same,Selectivity Index using the NPI non-cancer cell line,[3],21.61
same,SI (ARPE19),[3],436.81
same,SI (MCF10A),[3],449.00
same,SI (NPI),[3],21.61
same,"Relative potency (+ anion to no anion), Ratio + anion:no anion",[3],1
same,"Selectivity indices relative to ARPE-19, Ratio + anion:no anion",[3]; H460,1
same,"Selectivity indices relative to MCF10A, Ratio + anion:no anion",[3]; H460,1
same,IC50,[4]; [12],162 µM
same,IC50,[4]; [13],169 µM and 176 µM and 140 µM
same,IC50,[4]; [14],162 µM
same,IC50,[4]; [15],162 µM
same,"Relative potency (+ anion to no anion), Ratio + anion:no anion",[4],1
same,IC50,[5]; [16],0.169 µM
same,IC50,[5]; [17],0.169 µM
same,IC50,[5]; [18],0.083 µM and 0.161 µM and 0.235 µM and 0.184 µM and 0.182 µM
same,IC50,[5]; [19],0.169 µM
same,Selectivity index (ARPE19),[5],930.47
same,Selectivity index (MCF10A),[5],956.45
same,Selectivity Index using the NPI non-cancer cell line,[5],46.04
same,SI (ARPE19),[5],930.47
same,SI (MCF10A),[5],956.45
same,SI (NPI),[5],46.04
same,"Relative potency (+ anion to no anion), Ratio + anion:no anion",[5],1
same,"Selectivity indices relative to ARPE-19, Ratio + anion:no anion",[5]; HT29,1
same,"Selectivity indices relative to MCF10A, Ratio + anion:no anion",[5]; HT29,1
same,IC50,[2]; [6],0.061 µM and 0.091 µM and 0.064 µM
same,IC50,[2]; [7],0.072 µM
same,IC50,"[2]; 96 h, MTT, read-out: IC50",0.07 ± 0.013 µM
same,IC50,[2]; [20],0.075 µM
same,IC50,[2]; read-out: Mean IC50 values,0.072 µM
same,IC50,"[2]; single replicate, read-out: IC50 values for each replicate",0.079 µM and 0.086 µM
same,Selectivity index (ARPE19),[2],2184.03 and 2183.99
same,Selectivity index (MCF10A),[2],2245.00
same,Selectivity Index using the NPI non-cancer cell line,[2],108.06
same,more active towards HCT116 p53-/- than HCT116 p53+/+,[2]; based on 96h IC50 values,~ 6 fold
same,SI (ARPE19),[2],2184.03
same,SI (ARPE19),[2]; listed as [L2Zn3]^6+,over 2000
same,SI (MCF10A),[2],2245.00
same,SI (MCF10A),[2]; listed as [L2Zn3]^6+,over 2000
same,SI (NPI),[2],108.06
same,"Relative potency (+ anion to no anion), Ratio + anion:no anion",[2],1
same,"Selectivity indices relative to ARPE-19, Ratio + anion:no anion",[2],1
same,"Selectivity indices relative to MCF10A, Ratio + anion:no anion",[2],1
[Cu+2].[Cu+2].[Cu+2].c1ccc(-c2csc(NCCN(CCNc3nc(-c4ccccn4)cs3)CCNc3nc(-c4ccccn4)cs3)n2)nc1.c1ccc(-c2csc(NCCN(CCNc3nc(-c4ccccn4)cs3)CCNc3nc(-c4ccccn4)cs3)n2)nc1 [[L2Cu3]6+],induction of vacuoles / autophagy (CYTO-ID),[1],no or little autophagy
same,induction of vacuoles / autophagy (CYTO-ID),[1]; listed as [L2Cu3]^6+,did not
same,IC50,[3]; [8],0.257 µM and 0.234 µM and 0.451 µM and 0.164 µM
same,IC50,[3]; [9],0.276 µM
same,IC50,[3]; [10],0.276 µM
same,IC50,[3]; [11],0.276 µM
same,Selectivity index (ARPE19),[3],190.69
same,Selectivity index (MCF10A),[3],174.86
same,Selectivity Index using the NPI non-cancer cell line,[3],156.12
same,SI (ARPE19),[3],190.69
same,SI (MCF10A),[3],174.86
same,SI (NPI),[3],156.12
same,"Relative potency (+ anion to no anion), Ratio + anion:no anion",[3],1
same,"Selectivity indices relative to ARPE-19, Ratio + anion:no anion",[3]; H460,1
same,"Selectivity indices relative to MCF10A, Ratio + anion:no anion",[3]; H460,1
same,IC50,[4]; [12],48.3 µM
same,IC50,[4]; [13],51.9 µM and 58.1 µM and 39 µM and 43.8 µM and 48.5 µM
same,IC50,[4]; [14],48.3 µM
same,IC50,[4]; [15],48.3 µM
same,"Relative potency (+ anion to no anion), Ratio + anion:no anion",[4],1
same,IC50,[5]; [16],0.213 µM
same,IC50,[5]; [17],0.214 µM
same,IC50,[5]; [18],0.184 µM and 0.21 µM and 0.273 µM and 0.226 µM and 0.174 µM
same,IC50,[5]; [19],0.214 µM
same,Selectivity index (ARPE19),[5],245.93
same,Selectivity index (MCF10A),[5],225.51
same,Selectivity Index using the NPI non-cancer cell line,[5],201.36
same,SI (ARPE19),[5],245.93
same,SI (MCF10A),[5],225.51
same,SI (NPI),[5],201.36
same,"Relative potency (+ anion to no anion), Ratio + anion:no anion",[5],1
same,"Selectivity indices relative to ARPE-19, Ratio + anion:no anion",[5]; HT29,1
same,"Selectivity indices relative to MCF10A, Ratio + anion:no anion",[5]; HT29,1
same,IC50,[2]; [6],0.238 µM and 0.09 µM and 0.189 µM and 0.087 µM and 0.067 µM and 0.155 µM
same,IC50,[2]; [7],0.137 µM
same,IC50,[2]; [20],0.137 µM
same,IC50,[2]; read-out: Mean IC50 values,0.137 µM
same,Selectivity index (ARPE19),[2],384.16 and 384.82
same,Selectivity index (MCF10A),[2],352.26
same,Selectivity Index using the NPI non-cancer cell line,[2],314.53
same,SI (ARPE19),[2],384.16
same,SI (MCF10A),[2],352.26
same,SI (NPI),[2],314.53
same,"Relative potency (+ anion to no anion), Ratio + anion:no anion",[2],1
same,"Selectivity indices relative to ARPE-19, Ratio + anion:no anion",[2],1
same,"Selectivity indices relative to MCF10A, Ratio + anion:no anion",[2],1
